{"source": "patent US10441668B2", "about": "“System and method for enhanced mass spectrometry imaging” (University Health Network, priority 2014, dated 2019)", "key": {"breast cancer tumors": {"system": "breast cancer tumors", "test": "kinetic DCE magnetic resonance imaging of contrast agent passively targeted to breast cancer tumors in live mice", "assay_type": "in vivo", "conditions": "intravenous injection into tail vein", "description": "Referring now to FIGS. 3A and 3B, shown therein are the results of kinetic DCE magnetic resonance imaging of an exogenous contrast agent (in this example Gadoteridol) that was passively targeted to breast cancer tumors in live mice. In both cases, Gadoteridol was intravenously injected into the tail vein of mice under anesthesia with isofluorane.\nA first MR image 305 was taken at the time of injection. […] A second MR image 310 was taken at 5 minutes post injection.\nAs indicated by legend 322, the maximum signal intensity appears to reach its peak in plot 320 after 5 minutes. The exogenous agent was seen to penetrate and diffuse into the tumor core from the peripheries of the tumor.\nA second MR image 345 was taken at 5 minutes post injection.\nTo obtain the images shown below in FIGS. 5A-5C and FIGS. 6A-6C, SCID mice (from Harlan Laboratories) were inoculated in the lower mammary fat pad with 3×106 human MDA-MB-231 triple negative metastatic breast cancer cells and housed for 3 weeks to grow tumors up to 1 cm in diameter (caliper measurements). […] Throughout the imaging sessions, the animals' breathing was monitored using a respiratory pad and a respiratory tracking system (when imaged on the 1T Aspect or 7T Bruker MRI system, ˜30 min per imaging session)."}, "breast cancer tumor": {"system": "breast cancer tumor", "test": "ICP-MS quantification of Gd in sections of breast cancer tumor after acid extraction", "assay_type": "in vivo, mice", "conditions": "200 μm thick tumor slice", "excerpt": "Referring now to FIG. 10B, shown therein are the results of quantitative analysis of the distribution of an exogenous agent in a section of a breast cancer tumor. Here, ICP-MS was used to quantify the amount of Gadolinium (Gd) element in a 200 um thick section of the breast cancer tumor shown in FIG. 10A. The distribution of all three contributing Gadoteridol adducts (discussed above with reference to FIG. 4) are shown overlaid on an image of the tumor section.\nTo validate the ion abundances shown in the DESI-MS image 1000, a 200 μm think-slice of tumor was sectioned into three areas (1025, 1030 and 1040). The total tissue weight in each section was determined using an analytical balance and Gadoteridol was acid extracted for ICP-MS quantification. Gadoteridol was extracted using excess volume (e.g., 3.5 mls for every 1 mg tissue material in two rounds) of 10% perchloric acid through mixing and vortexing followed by a 30 min centrifugation at 21,000G taking the supernatant that was then diluted 5× with double distilled water. For ICP-MS analysis both the standard Gadoteridol solutions and the extracted samples were taken up in excess 2% nitric acid (1000 fold dilution) and were subjected to ICP-MS quantification using a Nexlon 350 ICP-MS (Perkin-Elmer)."}, "[1]": {"system": "human MDA-MB-231 breast cancer tumors", "test": "two-dimensional DESI-MS imaging of contrast agent distribution in excised human breast cancer tumor slices", "assay_type": "in vivo, SCID mice", "conditions": "5 minutes post injection, DESI-MS images vs H&E stained images", "description": "All the DESI-MS experiments described herein were performed using a Thermo Fisher Scientific LTQ mass spectrometer (San Jose, Calif., USA). Data was acquired and processed using QualBrowser Xcalibur 2.0 (Thermo Fisher Scientific). Mass spectra were acquired as full scans, in the positive ion mode, over the mass to charge ratio range from m/z 500 to 900. Typical instrumental parameters used were 4.5 kV capillary voltage and 275° C. capillary temperature. An H2O-MeOH (1:1) solution was used as the spray solvent and delivered at the flow rate of 1.5 μL min-1. Methanol (MeOH) and ultra-pure water (H2O), both HPLC-MS grade, were purchased from Sigma Aldrich (Oakville, ON, Canada). The sprayer-to-surface distance was 1.0 mm, the sprayer to inlet distance was 6-8 mm, an incident spray was set at 54°, and a collection angle of 10° was used. […]\nTo obtain the images shown below in FIGS. 5A-5C and FIGS. 6A-6C, SCID mice (from Harlan Laboratories) were inoculated in the lower mammary fat pad with 3×106 human MDA-MB-231 triple negative metastatic breast cancer cells and housed for 3 weeks to grow tumors up to 1 cm in diameter (caliper measurements). […] Throughout the imaging sessions, the animals' breathing was monitored using a respiratory pad and a respiratory tracking system (when imaged on the 1T Aspect or 7T Bruker MRI system, ˜30 min per imaging session). […]"}}, "note": "Values joined by “and” are separate entries in the source; they are usually repeats but may differ in a detail not shown here. Identical values can stand only once."}
{"smiles": "CC(O)CN1CCN(CC(=O)[O-])CCN(CC(=O)[O-])CCN(CC(=O)[O-])CC1.[Gd+3]", "note": "(centres unmarked) [Gadoteridol]", "values": [{"measurement": "time post injection at which the tumor site exhibits maximal contrast enhancement (MR signal intensity peak)", "setting": "breast cancer tumors", "value": "5 min and < 5 min"}, {"measurement": "absolute value of Gd element in tumor section, first area 1025", "setting": "breast cancer tumor; first area 1025, ICP-MS", "value": 54, "unit": "pg"}, {"measurement": "absolute value of Gd element in tumor section, second area 1030", "setting": "breast cancer tumor; second area 1030, ICP-MS", "value": 12.8, "unit": "pg"}, {"measurement": "absolute value of Gd element in tumor section, third area 1040", "setting": "breast cancer tumor; third area 1040, ICP-MS", "value": 27.5, "unit": "pg"}, {"measurement": "signal in necrotic region of the breast cancer tumor", "setting": "[1]", "value": "no Gadoteridol signal"}]}
